In PubChem BioAssay (NCI):
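Cells were grown in 96-well plates and exposed to each compound for 48 hours at five concentrations; endpoints were interpolated linearly between bracketing concentrations, or set to the highest concentration if not reached. TGI marks complete inhibition of growth.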

What was measured:
Experiment in all cases: DTP human tumour cell line panel, 48 h
RPMI-8226 leukemia = system: RPMI-8226 leukemia
TK-10 renal = system: TK-10 renal
UACC-62 melanoma = system: UACC-62 melanoma
PC-3 prostate = system: PC-3 prostate
UO-31 renal = system: UO-31 renal
HS 578T breast = system: HS 578T breast
HCC-2998 colon = system: HCC-2998 colon
K-562 leukemia = system: K-562 leukemia
HL-60(TB) leukemia = system: HL-60(TB) leukemia
NCI/ADR-RES ovarian = system: NCI/ADR-RES ovarian
EKVX NSCLC = system: EKVX NSCLC
SNB-75 CNS = system: SNB-75 CNS
IGROV1 ovarian = system: IGROV1 ovarian
NCI-H23 lung = system: NCI-H23 lung
HOP-62 NSCLC = system: HOP-62 NSCLC
SR leukemia = system: SR leukemia
SK-MEL-5 melanoma = system: SK-MEL-5 melanoma
COLO 205 colon = system: COLO 205 colon
M14 melanoma = system: M14 melanoma
CCRF-CEM leukemia = system: CCRF-CEM leukemia
SK-OV-3 ovarian = system: SK-OV-3 ovarian
HT29 colon = system: HT29 colon
OVCAR-3 ovarian = system: OVCAR-3 ovarian
CAKI-1 renal = system: CAKI-1 renal
NCI-H460 lung = system: NCI-H460 lung
MDA-N = system: MDA-N
OVCAR-4 ovarian = system: OVCAR-4 ovarian
SF-295 CNS = system: SF-295 CNS
T-47D breast = system: T-47D breast
RXF 393 renal = system: RXF 393 renal
OVCAR-8 ovarian = system: OVCAR-8 ovarian
SK-MEL-2 melanoma = system: SK-MEL-2 melanoma
BT-549 breast = system: BT-549 breast
NCI-H522 lung = system: NCI-H522 lung
SF-539 CNS = system: SF-539 CNS
KM12 colon = system: KM12 colon
MCF7 breast = system: MCF7 breast
SW-620 colon = system: SW-620 colon
SNB-19 CNS = system: SNB-19 CNS
UACC-257 melanoma = system: UACC-257 melanoma
DU-145 prostate = system: DU-145 prostate
HCT-15 colon = system: HCT-15 colon
LOX IMVI melanoma = system: LOX IMVI melanoma
A498 renal = system: A498 renal
MALME-3M melanoma = system: MALME-3M melanoma
MDA-MB-435 = system: MDA-MB-435
HOP-92 NSCLC = system: HOP-92 NSCLC
SF-268 CNS = system: SF-268 CNS
786-0 renal = system: 786-0 renal
ACHN renal = system: ACHN renal
U251 CNS = system: U251 CNS
A549 NSCLC = system: A549 NSCLC
SN12C renal = system: SN12C renal
OVCAR-5 ovarian = system: OVCAR-5 ovarian
MOLT-4 leukemia = system: MOLT-4 leukemia
HCT-116 colon = system: HCT-116 colon
SK-MEL-28 melanoma = system: SK-MEL-28 melanoma
NCI-H226 lung = system: NCI-H226 lung

Structure (SMILES): O=C1NC(=Nc2ccccc2Cl)N/C1=C\c1c(Cl)cccc1Cl
- TGI (RPMI-8226 leukemia): 56.6 µM
- TGI (TK-10 renal): 71.7 µM
- TGI (UACC-62 melanoma): > 100 µM
- TGI (PC-3 prostate): 76.8 µM
- TGI (UO-31 renal): 66.3 µM
- TGI (HS 578T breast): 99 µM
- TGI (HCC-2998 colon): 55.3 µM
- TGI (K-562 leukemia): > 100 µM
- TGI (HL-60(TB) leukemia): 54.2 µM
- TGI (NCI/ADR-RES ovarian): 86 µM
- TGI (EKVX NSCLC): 79.3 µM
- TGI (SNB-75 CNS): 76.3 µM
- TGI (IGROV1 ovarian): > 100 µM
- TGI (NCI-H23 lung): > 100 µM
- TGI (HOP-62 NSCLC): > 100 µM
- TGI (SR leukemia): 48 µM
- TGI (SK-MEL-5 melanoma): 47.2 µM
- TGI (COLO 205 colon): 56.2 µM
- TGI (M14 melanoma): > 100 µM
- TGI (CCRF-CEM leukemia): > 100 µM
- TGI (SK-OV-3 ovarian): > 100 µM
- TGI (HT29 colon): > 100 µM
- TGI (OVCAR-3 ovarian): > 100 µM
- TGI (CAKI-1 renal): > 100 µM
- TGI (NCI-H460 lung): 68.2 µM
- TGI (MDA-N): > 100 µM
- TGI (OVCAR-4 ovarian): 49.3 µM
- TGI (SF-295 CNS): > 100 µM
- TGI (T-47D breast): 81.1 µM
- TGI (RXF 393 renal): 68 µM
- TGI (OVCAR-8 ovarian): > 100 µM
- TGI (SK-MEL-2 melanoma): > 100 µM
- TGI (BT-549 breast): > 100 µM
- TGI (NCI-H522 lung): 58.7 µM
- TGI (SF-539 CNS): > 100 µM
- TGI (KM12 colon): > 100 µM
- TGI (MCF7 breast): > 100 µM
- TGI (SW-620 colon): > 100 µM
- TGI (SNB-19 CNS): > 100 µM
- TGI (UACC-257 melanoma): 79.8 µM
- TGI (DU-145 prostate): > 100 µM
- TGI (HCT-15 colon): > 100 µM
- TGI (LOX IMVI melanoma): > 100 µM
- TGI (A498 renal): > 100 µM
- TGI (MALME-3M melanoma): > 100 µM
- TGI (MDA-MB-435): > 100 µM
- TGI (HOP-92 NSCLC): 61.8 µM
- TGI (SF-268 CNS): > 100 µM
- TGI (786-0 renal): > 100 µM
- TGI (ACHN renal): > 100 µM
- TGI (U251 CNS): > 100 µM
- TGI (A549 NSCLC): > 100 µM
- TGI (SN12C renal): 84.6 µM
- TGI (OVCAR-5 ovarian): 83.7 µM
- TGI (MOLT-4 leukemia): > 100 µM
- TGI (HCT-116 colon): 67.1 µM
- TGI (SK-MEL-28 melanoma): > 100 µM
- TGI (NCI-H226 lung): > 100 µM
